From PMC3834726 (Clinical cancer research : an official journal of the …, 2012)
Read-outs that look alike come from different tables or passages of the source.

Tests used:
[1] = including patients on dialysis; cited from earlier work
blood 20S proteasome = test: Pharmacodynamics: blood 20S proteasome activity; assay type: in vivo, human
advanced malignancies = test: Tumor response; assay type: in vivo, human
[2] = human, in vivo
[3] = potent inhibitor of CYP2C19; cited from earlier work

SMILES: CC(C)C[C@H](NC(=O)[C@H](Cc1ccccc1)NC(=O)c1cnccn1)B(O)O [bortezomib, Bortezomib]
- Pharmacokinetics in varying grades of renal impairment [1]: not altered
- Deaths during the study (all patients): 15
- Died during treatment (reason for study discontinuation) (all patients): 2 (3%) n (%)
- On-study deaths (all patients, N=61): 15 (25) n (%)
- Deaths due to disease progression (all patients, of 15 deaths): 12
- Anorexia, any grade (human, in vivo): 19 (31) n (%)
- Any AE (human, in vivo): 59 (97) n (%)
- Any drug-related AE (human, in vivo): 40 (66) n (%)
- Any grade ≥3 AE (human, in vivo): 49 (80) n (%)
- Any grade ≥4 AE (human, in vivo): 22 (36) n (%)
- Any serious AE (human, in vivo): 28 (46) n (%)
- Decreased platelet count, any grade (human, in vivo): 18 (30) n (%)
- Decreased platelet count, grade ≥3 (human, in vivo): 7 (11) n (%)
- Discontinuation due to grade 3 hypotension (human, in vivo): 1 patient
- Discontinuation due to grade 4 elevated blood bilirubin (human, in vivo): 2 patients
- Dyspnea, any grade (human, in vivo): 19 (31) n (%)
- Elevated AST, incidence (human, in vivo): 7%
- Elevated blood bilirubin, rate (human, in vivo): 7%
- Fatigue, any grade (human, in vivo): 31 (51) n (%)
- Fatigue, grade ≥3 (human, in vivo): 9 (15) n (%)
- Increased AST, grade ≥3 (human, in vivo): 6 (10) n (%)
- Increased blood bilirubin, grade ≥3 (human, in vivo): 7 (11) n (%)
- Nausea, any grade (human, in vivo): 24 (39) n (%)
- Rate of grade ≥3 AEs (human, in vivo): 71%
- Rate of grade ≥4 AEs (human, in vivo): 14%
- Dose-limiting toxicity (DLT) (in vivo): none of these events met the protocol-defined criteria for DLT
- Relation of elevations in liver function test parameters to drug (in vivo): not considered to be drug-related
- On-study deaths (mild impairment, 1.0 mg/m^2, n=6): 0 n (%)
- On-study deaths (mild impairment, 1.3 mg/m^2, n=11): 4 (36) n (%)
- On-study deaths (moderate impairment, 0.7 mg/m^2, n=9): 2 (22) n (%)
- On-study deaths (moderate impairment, 1.0 mg/m^2, n=3): 0 n (%)
- On-study deaths (normal hepatic function, 1.3 mg/m^2, N=14): 2 (14) n (%)
- On-study deaths (severe impairment, 0.5 mg/m^2, n=5): 2 (40) n (%)
- On-study deaths (severe impairment, 0.7 mg/m^2, n=6): 3 (50) n (%)
- On-study deaths (severe impairment, 1.0 mg/m^2, n=7): 2 (29) n (%)
- Magnitude of percent inhibition of blood 20S proteasome activity (blood 20S proteasome; 0.5 mg/m^2, severe hepatic impairment (data not shown)): lower than that observed at the higher dose levels
- Time of maximum mean percent inhibition of blood 20S proteasome activity (blood 20S proteasome; across dose levels and hepatic function groups, first post-dose time point): 1 h
- Mean percent inhibition of 20S proteasome activity at 24 hours post dose (blood 20S proteasome; normal hepatic function group, 1.3 mg/m^2, day 1): approximately 31%
- Patients achieving stable disease (advanced malignancies; all hepatic function groups): five
- Patients with progressive disease as best response (advanced malignancies; all patients): 35
- Study discontinuation due to disease progression (advanced malignancies; all patients): 37 (61%) n (%)
- Study discontinuation due to disease progression (advanced malignancies; mild impairment group): 11 (65%) n (%)
- Study discontinuation due to disease progression (advanced malignancies; moderate impairment group): 9 (75%) n (%)
- Study discontinuation due to disease progression (advanced malignancies; normal function group): 8 (57%) n (%)
- Study discontinuation due to disease progression (advanced malignancies; severe impairment group): 9 (50%) n (%)
- Disposition kinetics [2]: multi-exponential disposition kinetics
- Dose calculated to match exposures at 1.3 mg/m^2 in normal hepatic function [2]: approximately 0.8 mg/m^2
- Increase in dose-normalized AUC (systemic exposure) [2]: approximately 60%
- Increase in mean dose-normalized AUC0-tlast [2]: approximately 60%
- Observed mean increase in dose-normalized AUC relative to normal hepatic function group [2]: 1.6 fold
- Bortezomib exposure on co-administration of omeprazole [3]: unaffected
